Key:
Type in all cases: cell-based, human
U251 glioblastoma cells [1] = experiment: Vacuolization of U251 cells by phase contrast and electron microscopy; conditions: 24 h; for vacuolization of endocytic compartments (accumulation of vacuoles): 10 μM MOPIPP or 1 μM vacuolin-1, phase contrast microscopy
U251 glioblastoma cells [2] = experiment: RT-PCR analysis of miRNAs in cells and exosomes; conditions: for relative abundance of miR-21-5p in exosomal RNA: equal amounts of exosomal RNA, raw Ct values, three independent experiments
Description: Prior to beginning studies, cells were seeded in 10 cm diameter culture dishes at 500,000 cells/dish and maintained for 24 h in DMEM supplemented with 10% Gibco™ exosome-depleted FBS (ThermoFisher Scientific, Waltham, Mass.). The medium was then replaced with fresh medium containing either 10 μM MOPIPP (synthesized as described in Trabbic et al., “Differential Induction of Cytoplasmic Vacuolization and Methuosis by Novel 2-Indolyl-Substituted Pyridinylpropenones, ACS Med. Chem. Lett., 5 (2014) 73-77) or 1 μM vacuolin-1 (Santa Cruz Biotechnology, Santa Cruz, Calif.) dissolved in DMSO. Control cultures contain an equivalent volume of the DMSO vehicle (0.1%) in the medium. After 24 h, the medium was collected from the dishes (typically 10-12 dishes per condition) and the attached cells were pooled and counted with a Coulter Counter (model Z1). Exosomes were isolated from medium using the Exo-Spin™ Exosome Purification system (Cell Guidance Systems, St. Louis, Mo.). The medium was pre-cleared by centrifugation at 4° C., first at 300×g for 10 min and then at 16,000×g for 30 min. Then a volume of Buffer A equal to half the volume of medium was added and the mixture was incubated overnight at 4° C. The precipitate, enriched with exosomes, was collected by centrifugation at 16,000×g for 1 h, and the pellet was re-suspended in […] Dulbecco's phosphate-buffered saline (PBS), pH 7.4. […]
Total RNA was extracted and purified from cultured cells or exosomes using QIAzol™ lysis reagent followed by RNAeasy Mini spin-columns, according to the manufacturer's protocol (SA Biosciences/Qiagen, Germantown, Md.). […] RNA and cDNA were quantified and checked for purity (OD 260/280) using a Nano-Drop-1000 spectrophotometer (ThermoFisher). […] For comparisons of the miRNA contents of exosomes collected from the medium of cells treated with MOPIPP, vacuolin-1 or vehicle (DMSO), individual miScript primers were purchased for six of the most highly expressed miRNAs detected in U251 cells (SA Biosciences/Qiagen). […]

U251 glioblastoma cells [3] = experiment: Cell counts, proliferation and viability of treated cultures (Coulter Counter); conditions: for cell attachment and proliferation despite vacuolization / growth inhibition (cell numbers versus DMSO control): U251 cells, 24 h; for cell attachment and proliferation despite vacuolization / cell proliferation and viability: 10 μM MOPIPP or 1 μM vacuolin-1; for growth inhibition (cell numbers versus DMSO control): 10 μM MOPIPP or 1 μM vacuolin-1, Coulter Counter; for cell proliferation and viability: U251 glioblastoma cells
Description: U251 human glioblastoma cells were purchased from the DCT Tumor Repository (National Cancer Institute, Frederick, Md.). Stock cultures were maintained in Dulbecco's modified Eagle medium (DMEM) containing 10% (v/v) fetal bovine serum (FBS) (JR Scientific, Woodland, Calif.) at 37° C. with an atmosphere of 5% CO2 in air. Cultures were passaged for less than 6 months and were monitored periodically for Mycoplasma contamination.
(§1) Prior to beginning studies, cells were seeded in 10 cm diameter culture dishes at 500,000 cells/dish and maintained for 24 h in DMEM supplemented with 10% Gibco™ exosome-depleted FBS (ThermoFisher Scientific, Waltham, Mass.). The medium was then replaced with fresh medium containing either 10 μM MOPIPP (synthesized as described in Trabbic et al., “Differential Induction of Cytoplasmic Vacuolization and Methuosis by Novel 2-Indolyl-Substituted Pyridinylpropenones, ACS Med. Chem. Lett., 5 (2014) 73-77) or 1 μM vacuolin-1 (Santa Cruz Biotechnology, Santa Cruz, Calif.) dissolved in DMSO. Control cultures contain an equivalent volume of the DMSO vehicle (0.1%) in the medium. After 24 h, the medium was collected from the dishes (typically 10-12 dishes per condition) and the attached cells were pooled and counted with a Coulter Counter (model Z1). Exosomes were isolated from medium using the Exo-Spin™ Exosome Purification system (Cell Guidance Systems, St. Louis, Mo.). The medium was pre-cleared by centrifugation at 4° C., first at 300×g for 10 min and then at 16,000×g for 30 min. Then a volume of Buffer A equal to half the volume of medium was added and the mixture was incubated overnight at 4° C. The precipitate, enriched with exosomes, was collected by centrifugation at 16,000×g for 1 h, and the pellet was re-suspended in […] Dulbecco's phosphate-buffered saline (PBS), pH 7.4. The material was applied to an Exo-Spin column equilibrated with PBS, and the purified exosomes were eluted in 200 μl of PBS.

U251 glioblastoma cells [4] = experiment: Immunoblot quantification of exosome marker proteins (CD63, Alix, LAMP-1) in purified exosomes and in cells; conditions: 10 μM MOPIPP or 1 μM vacuolin-1, western blot; for changes in expression of CD63, Alix and LAMP-1 in the corresponding cell populations: cell lysates, 24 h; for relative amounts of CD63, Alix and LAMP-1 in extracellular vesicle preparations versus control: exosomes from 24 h conditioned medium
Description: as §1
The cells in the dishes used for collection of exosomes were washed three times with PBS and lysed in SDS sample buffer (Laemmli, “Cleavage of structural proteins during the assembly of the head of bacteriophage T4, Nature, 227 (1970) 680-685). The protein concentration was determined by colorimetric assay using Bio-Rad reagent (Bio-Rad, Richmond, Calif.). Samples containing equal amounts of total cell protein were subjected to SDS-PAGE and immunoblot analysis (as described in Maltese et al., “Retention of the Alzheimer's amyloid precursor fragment C99 in the endoplasmic reticulum prevents formation of amyloid beta-peptide, J. Biol. Chem., 276 (2001) 20267-20279). For analysis of proteins in exosomes, equal volumes of purified exosomes isolated from control or treated cells were mixed with ⅕ volume of 5×SDS sample buffer prior to SDS-PAGE. Monoclonal antibodies against CD63 and LAMP-1 were obtained from the Developmental Studies Hybridoma Bank (Iowa City, Iowa). […] Chemiluminescent signals on the membranes were quantified using an Alpha Innotech FluorChem HD2 imaging system with Alpha View software.

Row | SMILES | vacuolization of endocytic compartments (accumulation of vacuoles) (U251 glioblastoma cells [1]) | subpopulation of vacuoles containing clusters of heterogeneous vesicles (ILV/exosome size) (U251 glioblastoma cells [1]; 10 μM MOPIPP, electron microscopy) | cellular expression of 13 selected miRNAs (U251 glioblastoma cells [2]; U251 cells, 24 h, 10 μM MOPIPP versus DMSO, RT-PCR) | relative abundance of miR-21-5p in exosomal RNA (U251 glioblastoma cells [2]) | cell attachment and proliferation despite vacuolization (U251 glioblastoma cells [3]) | growth inhibition (cell numbers versus DMSO control) (U251 glioblastoma cells [3]) | cell proliferation and viability (U251 glioblastoma cells [3]) | changes in expression of CD63, Alix and LAMP-1 in the corresponding cell populations (U251 glioblastoma cells [4]) | relative amounts of CD63, Alix and LAMP-1 in extracellular vesicle preparations versus control (U251 glioblastoma cells [4])
1 | CCCc1[nH]c2ccc(OC)cc2c1C=CC(=O)c1ccncc1 [MOPIPP, 3-(5-methoxy-2-propyl-1H-indol-3-yl)-1-(4-pyridinyl)-2-propen-1-one] | resulted in vacuolization of endocytic compartments | 20-30% | did not cause major changes | no observations of any changes | remained attached to the culture dishes and continued to proliferate | lack of growth inhibition | not markedly impaired | comparatively modest | increased by several fold
2 | Ic1cccc(/C=N/Nc2nc(N3CCOCC3)nc(N(c3ccccc3)c3ccccc3)n2)c1 [vacuolin-1, reference compound] | induced a very similar phenotype | – | – | no observations of any changes | remained attached to the culture dishes and continued to proliferate | lack of growth inhibition | not markedly impaired | comparatively modest | An even greater increase

Source: US11602531B2, “Vacuole-inducing compounds, methods of making and using the same” (The University of Toledo, priority 2017, dated 2023)
